# Key:
# EP4 Gs-coupled receptor = target: T1, EP4 Gs-coupled receptor (Homo sapiens, UniProt P35408); assay: cAMP HTRF assay in 293T cells overexpressing EP4; type: cell-based; details: read-out: best-fit IC50, reduction of PGE2-induced recruitment of cAMP
# T1 construct: expressed in transfected cells; host or cells: 293T cells
# Procedure: (§1) FIG. 4. NO2—OA inhibits PGE2-dependent EP4 cAMP downstream signaling. (A) Three parameters nonlinear regression of EP4 global fitting dose-response curve. […] (B) HTRF assay of cAMP-Gs coupled receptor. […] (D) Representative figure of gelatin zymography indicating MMP 2/9 activity. BMDMs were incubated with L-902,688 (100 nM) plus vehicle, OA (2.5 μM) or NO2—OA (2.5 μM) for 12 h, and MMP 2&9 activity was measured by gelatin zymography. For (A) and (B), three or four parameters, global or separate fitting, constraints, and the significance of EC50 were determined in Prism. Data presented as mean±SEM. A p<0.05 was considered statistically significant.
# Cells at 80% density were incubated on plates coated with transfection complex containing human EP4 receptors and a cAMP response element-regulated secreted alkaline phosphatase (SEAP) reporter. Activation of EP4 was quantified by adding a luminance-based alkaline phosphatase substrate and read in a chemiluminescence plate reader relative to the kit's standards. EP4 Inhibition assay was performed using cAMP-Gs HiRange kit (#62AM6PEB, Cisbio) following the manufacture's protocol and measured by Neo2 plate reader (BioTek, Winooski, Vt.). HTRF ratio (665/620) was converted to cAMP concentration using a cAMP standard.
# MMP2 = assay: Gelatin zymography in BMDMs, MMP2; type: cell-based, mouse; details: 2.5 μM, 12 h
# Procedure: as §1
# Freshly differentiated BMDMs were cultured in the bone marrow macrophage-differentiation media until 80% confluence. […] Then, the supernatant was collected and centrifuged to remove any residual debris. Measurement of MMP2 and MMP9 activity was performed by running the supernatant (using detergent-free loading buffer) in 1% gelatin gel, followed by staining with Coomassie blue.
# EPRAP/p105 interaction = target: T2, EPRAP/p105 interaction (Homo sapiens, UniProt P19838+Q9BSK4); assay: Co-IP of HA-tagged EPRAP (FEM1A) and p105; type: cell-based; details: up to 5 μM; cells overexpressing HA-tagged EPRAP (FEM1A) and p105
# T2 construct: Addgene (p105 plasmid) #HG21487-NY; plasmid #23288
# T2 sequence (Q9BSK4 1-669): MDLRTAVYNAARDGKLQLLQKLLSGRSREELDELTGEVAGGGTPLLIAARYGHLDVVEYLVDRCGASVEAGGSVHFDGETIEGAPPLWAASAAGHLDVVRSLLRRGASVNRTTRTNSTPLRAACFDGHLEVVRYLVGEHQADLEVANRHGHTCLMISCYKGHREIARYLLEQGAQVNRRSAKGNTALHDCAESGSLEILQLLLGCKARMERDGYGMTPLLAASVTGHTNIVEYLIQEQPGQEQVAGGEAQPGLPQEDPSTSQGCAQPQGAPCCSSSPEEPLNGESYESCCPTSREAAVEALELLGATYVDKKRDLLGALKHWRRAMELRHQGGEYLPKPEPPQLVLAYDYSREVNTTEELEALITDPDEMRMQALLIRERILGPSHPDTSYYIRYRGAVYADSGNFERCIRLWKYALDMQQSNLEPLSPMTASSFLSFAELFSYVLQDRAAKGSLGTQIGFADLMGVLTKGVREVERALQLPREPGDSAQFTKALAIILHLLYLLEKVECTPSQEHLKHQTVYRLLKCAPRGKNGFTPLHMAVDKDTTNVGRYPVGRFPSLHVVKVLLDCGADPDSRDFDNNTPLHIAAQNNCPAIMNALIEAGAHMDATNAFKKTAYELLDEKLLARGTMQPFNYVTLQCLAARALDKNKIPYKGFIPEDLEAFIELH
# T2 sequence (P19838 1-968): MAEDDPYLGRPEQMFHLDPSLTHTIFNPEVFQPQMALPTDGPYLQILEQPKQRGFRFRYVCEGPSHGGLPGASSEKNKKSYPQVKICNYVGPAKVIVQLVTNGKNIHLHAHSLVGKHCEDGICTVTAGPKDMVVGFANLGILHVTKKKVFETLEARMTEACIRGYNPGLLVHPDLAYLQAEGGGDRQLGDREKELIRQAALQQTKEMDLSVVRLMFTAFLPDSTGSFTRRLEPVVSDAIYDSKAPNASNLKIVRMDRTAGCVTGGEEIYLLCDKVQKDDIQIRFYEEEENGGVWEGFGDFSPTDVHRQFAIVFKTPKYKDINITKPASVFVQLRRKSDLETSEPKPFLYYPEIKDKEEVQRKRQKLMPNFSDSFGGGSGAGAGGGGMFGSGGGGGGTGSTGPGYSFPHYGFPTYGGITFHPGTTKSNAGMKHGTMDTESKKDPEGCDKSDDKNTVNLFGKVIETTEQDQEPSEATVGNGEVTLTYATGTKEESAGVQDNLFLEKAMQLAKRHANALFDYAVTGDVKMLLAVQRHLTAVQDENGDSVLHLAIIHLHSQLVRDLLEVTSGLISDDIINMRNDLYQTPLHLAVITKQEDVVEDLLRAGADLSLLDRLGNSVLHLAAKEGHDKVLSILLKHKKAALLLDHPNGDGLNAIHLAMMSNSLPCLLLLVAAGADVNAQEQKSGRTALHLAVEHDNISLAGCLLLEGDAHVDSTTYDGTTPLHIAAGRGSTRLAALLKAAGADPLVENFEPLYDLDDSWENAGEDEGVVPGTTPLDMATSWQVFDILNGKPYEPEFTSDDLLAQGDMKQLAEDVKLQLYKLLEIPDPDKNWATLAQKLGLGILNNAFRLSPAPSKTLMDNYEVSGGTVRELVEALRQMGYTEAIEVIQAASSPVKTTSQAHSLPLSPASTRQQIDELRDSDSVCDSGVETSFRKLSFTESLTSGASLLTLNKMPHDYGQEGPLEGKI
# Excerpt: Nuclear/cytoplasm protein extraction, co-Immunoprecipitation and immunoblotting NE-PER™ Nuclear and Cytoplasmic Extraction Reagents (#78835, ThermoFisher) were used for nuclear and cytoplasmic protein extraction. For Co-IP, cells were lysed using Cell Lysis Buffer (#9803, CST) supplemented with PMSF (#8553, CST), immunoprecipitated using Protein G Magnetic Beads (#7024, CST) and antibodies against HA (#AE008, ABclonal) or p50/p105(#13586, CST) following the manufacture's protocol. For immunoblot, protein extracts were resolved in SDS-PAGE gels and transferred to nitrocellulose membranes. Membranes were blocked by 5% BSA and incubated with the primary antibody at 4° C. overnight followed by incubation with fluorescence conjugated secondary antibody for 1 h at room temperature. Band intensity was collected with the Odyssey® CLx Imaging System and quantified using Image Studio™ Lite.
# T1 sequence (P35408 whole entry): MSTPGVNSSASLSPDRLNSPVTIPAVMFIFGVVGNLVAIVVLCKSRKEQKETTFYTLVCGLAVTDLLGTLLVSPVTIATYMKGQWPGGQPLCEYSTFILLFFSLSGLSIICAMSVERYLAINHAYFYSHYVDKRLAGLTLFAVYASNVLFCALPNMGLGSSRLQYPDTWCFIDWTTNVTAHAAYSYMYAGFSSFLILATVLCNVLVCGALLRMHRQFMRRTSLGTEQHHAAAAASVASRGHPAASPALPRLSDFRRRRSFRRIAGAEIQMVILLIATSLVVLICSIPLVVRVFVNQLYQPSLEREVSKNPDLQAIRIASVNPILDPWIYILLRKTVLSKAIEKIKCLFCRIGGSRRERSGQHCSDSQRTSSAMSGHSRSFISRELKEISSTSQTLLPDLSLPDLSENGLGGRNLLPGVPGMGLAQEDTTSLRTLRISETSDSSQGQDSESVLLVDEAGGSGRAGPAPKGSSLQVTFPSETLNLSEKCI
compound,measurement,setting,value
"CCCCCCCCC(=CCCCCCCCC(=O)O)[N+](=O)[O-] [NO2—OA, 10-nitro-octadec-9-enoic acid]",IC50,EP4 Gs-coupled receptor,2.8 µM
same,MMP2 activity (gelatin zymography),MMP2,no significant changes
same,effect on the EPRAP/p105 interaction,EPRAP/p105 interaction,no significant effect
